Legend:
[1] = system: IL-8 production in SW1353 human chondrosarcoma cells; assay: glucocorticoid inhibition of IL-1 induced IL-8 production in human chondrosarcoma cells; assay type: cell-based; conditions: 20 ng/ml IL-1 beta, 24 hours after IL-1 addition, ELISA, read-out: IC50, inhibition of IL-8 expression
Procedure: (§1) This assay, the glucocorticoid inhibition of IL-1 (Interleukin-1) induced MMP-1 (Matrix Metalloproteinase-1) and IL-8 (Interleukin-8) production in human chondrosarcoma cells, is conducted as follows: SW1353 human chondrosarcoma cells (obtained from ATCC) from passage 12 through passage 19 are used in a 96 well format assay. Cells are plated at confluence into 96 well plates in DMEM (Dulbecco's Modified Eagle Medium) with 10% fetal bovine serum and incubated at 37° C., 5% CO2. After 24 hours, serum containing media is removed and replaced with 200 ul/well DMEM containing 1 mg/L insulin, 2 g/L lactalbumin hydrosylate, and 0.5 mg/L ascorbic acid and returned to incubation at 37° C., 5% CO2. […] IL-8 production is assessed using the Quantikine human IL-8 ELISA kit from R & D Systems (D8050) on samples diluted 60-fold in RD5P Calibrator Diluent, following the manufacturer's protocol. The percent of the average IL-1 control is determined for the average of each of the triplicate samples following subtraction of the average signal from untreated cells. IC50's are determined from log linear plots of the percent of control versus the concentration of inhibitor. […] MMP-1 production is assessed via the Bio-Trak MMP-1 ELISA kit from Amersham (RPN2610) on 100 ul of neat sample following the manufacturer's protocol. […]

[2] = system: MMP-1 production in SW1353 human chondrosarcoma cells; assay: glucocorticoid inhibition of IL-1 induced MMP-1 production in human chondrosarcoma cells; assay type: cell-based; conditions: 20 ng/ml IL-1 beta, 72 hours after IL-1 addition, ELISA, read-out: IC50, inhibition of MMP1 expression
Procedure: as §1

For C[C@@H]1C[C@H]2[C@@H]3CCC4=CC(=O)C=C[C@]4(C)[C@@]3(F)[C@@H](O)C[C@]2(C)[C@@]1(O)C(=O)CO [Dexamethasone, (11β, 16α)-9-fluoro-11,17,21-trihydroxy-16-methylpregna-1,4-diene-3,20-dione], the IC50 [1] was 5 nM and the IC50 [2] was 5 nM.
